{"source": "patent US3985779A", "about": "“M-phenoxyphenyl propionic acid derivatives and preparation thereof” (Eisai Co., Ltd., priority 1973, dated 1976)", "system": "edema induced with the various inflammatory agents", "assay": "Inhibitory activity on edema induced with the various inflammatory agents (Experiments A-G, summary)", "type": "in vivo, rats", "settings": "compared with Fenoprofen and Ibuprofen", "text": "From the abovementioned Experiments A - G, it has been found the followings: […]", "data": [{"smiles": "CC(C(=O)O)c1cccc(Oc2ccccc2Cl)c1", "note": "(stereo not shown) [Compound (5), 2-[m-(o-chlorophenoxy)phenyl]propionic acid]", "values": [{"measurement": "anti-inflammatory activity (in words)", "value": "most effective as the anti-inflammatory agent"}]}]}
